Measurements: PubChem BioAssay AID1259407 (Chemical Carcinogenesis Research Information System (CCRIS), 2018)
Activity calls are given as the source filed them. How the calls were made is not given here.

System: CCRIS mutagenicity, Ames/micronucleus/aberration tests
Assay: CCRIS mutagenicity studies
[1] = Test System: AMES SALMONELLA TYPHIMURIUM, Strain/Indicator: TA98, Metabolic Activation: NONE, Method: STANDARD PLATE
[2] = Test System: AMES SALMONELLA TYPHIMURIUM, Strain/Indicator: TA98, Metabolic Activation: RAT, LIVER, S-9, AROCLOR 1254, Method: STANDARD PLATE
[3] = Test System: AMES SALMONELLA TYPHIMURIUM, Strain/Indicator: TA100, Metabolic Activation: NONE, Method: STANDARD PLATE
[4] = Test System: AMES SALMONELLA TYPHIMURIUM, Strain/Indicator: TA100, Metabolic Activation: RAT, LIVER, S-9, AROCLOR 1254, Method: STANDARD PLATE
[5] = Test System: AMES SALMONELLA TYPHIMURIUM, Strain/Indicator: TA1535, Metabolic Activation: NONE, Method: STANDARD PLATE
[6] = Test System: AMES SALMONELLA TYPHIMURIUM, Strain/Indicator: TA1535, Metabolic Activation: RAT, LIVER, S-9, AROCLOR 1254, Method: STANDARD PLATE
[7] = Test System: AMES SALMONELLA TYPHIMURIUM, Strain/Indicator: TA1537, Metabolic Activation: NONE, Method: STANDARD PLATE
[8] = Test System: AMES SALMONELLA TYPHIMURIUM, Strain/Indicator: TA1538, Metabolic Activation: NONE, Method: STANDARD PLATE
[9] = Test System: AMES SALMONELLA TYPHIMURIUM, Strain/Indicator: TA1538, Metabolic Activation: RAT, LIVER, S-9, AROCLOR 1254, Method: STANDARD PLATE
[10] = Test System: AMES SALMONELLA TYPHIMURIUM, Strain/Indicator: TA97, Metabolic Activation: NONE, Method: STANDARD PLATE
[11] = Test System: AMES SALMONELLA TYPHIMURIUM, Strain/Indicator: TA97, Metabolic Activation: RAT, LIVER, S-9, AROCLOR 1254, Method: STANDARD PLATE
[12] = Test System: AMES SALMONELLA TYPHIMURIUM, Strain/Indicator: TA102, Metabolic Activation: NONE, Method: STANDARD PLATE
[13] = Test System: AMES SALMONELLA TYPHIMURIUM, Strain/Indicator: TA102, Metabolic Activation: RAT, LIVER, S-9, AROCLOR 1254, Method: STANDARD PLATE

In the case of C=CC(=O)OCCCCOC(=O)C=C, the mutagenic call [1] is reported as “inactive; negative”, the mutagenic call [2] is reported as “inactive; negative” and the mutagenic call (Test System: AMES SALMONELLA TYPHIMURIUM, Strain/Indicator: TA98, Metabolic Activation: RAT, LIVER, S-9, SODIUM PHENOBARBITAL, Method: STANDARD PLATE) is reported as “inactive; negative”. For the same molecule, the mutagenic call [3] was “inactive; negative”, the mutagenic call [4] was “inactive; negative” and the mutagenic call (Test System: AMES SALMONELLA TYPHIMURIUM, Strain/Indicator: TA100, Metabolic Activation: RAT, LIVER, S-9, SODIUM PHENOBARBITAL, Method: STANDARD PLATE) was “inactive; negative”. For the same molecule, the mutagenic call [5] was “inactive; negative”, the mutagenic call [6] was “inactive; negative” and the mutagenic call (Test System: AMES SALMONELLA TYPHIMURIUM, Strain/Indicator: TA1535, Metabolic Activation: RAT, LIVER, S-9, SODIUM PHENOBARBITAL, Method: STANDARD PLATE) was “inactive; negative”. For the same molecule, the mutagenic call [7] was “inactive; negative”, the mutagenic call (Test System: AMES SALMONELLA TYPHIMURIUM, Strain/Indicator: TA1537, Metabolic Activation: RAT, LIVER, S-9, AROCLOR 1254, Method: STANDARD PLATE) was “inactive; negative” and the mutagenic call (Test System: AMES SALMONELLA TYPHIMURIUM, Strain/Indicator: TA1537, Metabolic Activation: RAT, LIVER, S-9, SODIUM PHENOBARBITAL, Method: STANDARD PLATE) was “inactive; negative”. For the same molecule, the mutagenic call [8] was “inactive; negative”, the mutagenic call [9] was “inactive; negative” and the mutagenic call (Test System: AMES SALMONELLA TYPHIMURIUM, Strain/Indicator: TA1538, Metabolic Activation: RAT, LIVER, S-9, SODIUM PHENOBARBITAL, Method: STANDARD PLATE) was “inactive; negative”.

CC(=O)N(C(C)=O)c1cc(N=Nc2ccc(C)cc2)ccc1C was tested, and the mutagenic call (Test System: AMES SALMONELLA TYPHIMURIUM, Strain/Indicator: TA98, Metabolic Activation: NONE, Method: SUSPENSION/PLATE) was “inactive; negative”, the mutagenic call (Test System: AMES SALMONELLA TYPHIMURIUM, Strain/Indicator: TA98, Metabolic Activation: RAT, LIVER, S-9, PHENOBARBITAL AND 5,6-BENZOFLAVONE, Method: SUSPENSION/PLATE) was “inactive; negative” and the mutagenic call (Test System: AMES SALMONELLA TYPHIMURIUM, Strain/Indicator: TA100, Metabolic Activation: NONE, Method: SUSPENSION/PLATE) was “inactive; negative”. The mutagenic call (Test System: AMES SALMONELLA TYPHIMURIUM, Strain/Indicator: TA100, Metabolic Activation: RAT, LIVER, S-9, PHENOBARBITAL AND 5,6-BENZOFLAVONE, Method: SUSPENSION/PLATE) was “inactive; negative”.

O=[N+]([O-])c1ccc(-c2nc3n(c2[N+](=O)[O-])CCS3)cc1 was tested, and the mutagenic call [1] was “active; positive”, the mutagenic call [3] was “active; positive” and the mutagenic call [5] was “inactive; negative”. The mutagenic call [7] was “inactive; negative” and the mutagenic call [8] was “active; positive”.

For O=C(CC(O)(CC(=O)OCCBr)C(=O)OCCBr)OCCBr, the mutagenic call [3] was “inactive; negative” and the mutagenic call [4] was “active; positive”.

O=S1OC[C@@H]2[C@H](CO1)[C@]1(Cl)C(Cl)=C(Cl)[C@@]2(Cl)C1(Cl)Cl (stereo partly drawn) was tested, and the mutagenic call [10] was “inactive; negative”, the mutagenic call [11] was “inactive; negative” and the mutagenic call [1] was “inactive; negative”. The mutagenic call [2] was “inactive; negative”, the mutagenic call [3] was “inactive; negative” and the mutagenic call [4] was “inactive; negative”. The mutagenic call [12] was “inactive; negative” and the mutagenic call [13] was “inactive; negative”.

For Nc1ccc(C(=O)O)cc1, the mutagenic call (Test System: AMES SALMONELLA TYPHIMURIUM, Strain/Indicator: TA98, Metabolic Activation: HAMSTER, LIVER, S-9, AROCLOR 1254 (10%), Method: PREINCUBATION) was “inactive; negative”, the mutagenic call (Test System: AMES SALMONELLA TYPHIMURIUM, Strain/Indicator: TA98, Metabolic Activation: NONE, Method: PREINCUBATION) was “inactive; negative” and the mutagenic call (Test System: AMES SALMONELLA TYPHIMURIUM, Strain/Indicator: TA98, Metabolic Activation: RAT, LIVER, S-9, AROCLOR 1254 (10%), Method: PREINCUBATION) was “inactive; negative”. The mutagenic call (Test System: AMES SALMONELLA TYPHIMURIUM, Strain/Indicator: TA100, Metabolic Activation: HAMSTER, LIVER, S-9, AROCLOR 1254 (10%), Method: PREINCUBATION) was “inactive; negative”, the mutagenic call (Test System: AMES SALMONELLA TYPHIMURIUM, Strain/Indicator: TA100, Metabolic Activation: NONE, Method: PREINCUBATION) was “inactive; negative” and the mutagenic call (Test System: AMES SALMONELLA TYPHIMURIUM, Strain/Indicator: TA100, Metabolic Activation: RAT, LIVER, S-9, AROCLOR 1254 (10%), Method: PREINCUBATION) was “inactive; negative”. For the same molecule, the mutagenic call (Test System: AMES SALMONELLA TYPHIMURIUM, Strain/Indicator: TA1535, Metabolic Activation: HAMSTER, LIVER, S-9, AROCLOR 1254 (10%), Method: PREINCUBATION) was “inactive; negative”, the mutagenic call (Test System: AMES SALMONELLA TYPHIMURIUM, Strain/Indicator: TA1535, Metabolic Activation: NONE, Method: PREINCUBATION) was “inactive; negative” and the mutagenic call (Test System: AMES SALMONELLA TYPHIMURIUM, Strain/Indicator: TA1535, Metabolic Activation: RAT, LIVER, S-9, AROCLOR 1254 (10%), Method: PREINCUBATION) was “inactive; negative”. The mutagenic call (Test System: AMES SALMONELLA TYPHIMURIUM, Strain/Indicator: TA1537, Metabolic Activation: HAMSTER, LIVER, S-9, AROCLOR 1254 (10%), Method: PREINCUBATION) was “inactive; negative”, the mutagenic call (Test System: AMES SALMONELLA TYPHIMURIUM, Strain/Indicator: TA1537, Metabolic Activation: NONE, Method: PREINCUBATION) was “inactive; negative” and the mutagenic call (Test System: AMES SALMONELLA TYPHIMURIUM, Strain/Indicator: TA1537, Metabolic Activation: RAT, LIVER, S-9, AROCLOR 1254 (10%), Method: PREINCUBATION) was “inactive; negative”.

With CCOC(=O)C(C)Br (stereo not drawn) the mutagenic call [3] was “active; positive”.

With COc1cc(-c2oc3cc(O)cc(O)c3c(=O)c2O)ccc1O the mutagenic call [10] was “inactive; negative”, the mutagenic call [11] was “inactive; negative” and the mutagenic call [1] was “inactive; negative”. For the same molecule, the mutagenic call [2] was “inactive; negative”, the mutagenic call [3] was “inactive; negative” and the mutagenic call [4] was “inactive; negative”. The mutagenic call [12] was “inactive; negative”, the mutagenic call [13] was “inactive; negative” and the mutagenic call [5] was “inactive; negative”. The mutagenic call [6] was “inactive; negative”, the mutagenic call [8] was “inactive; negative” and the mutagenic call [9] was “inactive; negative”.

For CN[C@H]1[C@@H](O[C@@H]2C3CC#CC4O[C@@]4(C4COC(=O)O4)C#CC3=C[C@H]2OC(=O)c2c(O)ccc3c(C)cc(OC)cc23)O[C@H](C)[C@H](O)[C@@H]1O (stereo partly drawn), the mutagenic call [1] was “inactive; negative”, the mutagenic call [3] was “inactive; negative” and the mutagenic call (Test System: CHINESE HAMSTER OVARY, Strain/Indicator: CHO-D422 (APRT)/8-AZAADENINE, Metabolic Activation: NONE) was “active; positive”. For the same molecule, the mutagenic call (Test System: CHINESE HAMSTER OVARY, Strain/Indicator: CHO-K1/6-THIOGUANINE, Metabolic Activation: NONE) was “active; positive”, the mutagenic call (Test System: E. COLI, Strain/Indicator: WP2 (HCR), Metabolic Activation: NONE, Method: STANDARD PLATE) was “active; positive” and the mutagenic call (Test System: E. COLI, Strain/Indicator: WP2, Metabolic Activation: NONE, Method: PREINCUBATION) was “active; positive”. The mutagenic call (Test System: E. COLI, Strain/Indicator: WP2, Metabolic Activation: NONE, Method: SPOT) was “active; positive”, the mutagenic call (Test System: E. COLI, Strain/Indicator: WP2 UVRA, Metabolic Activation: NONE, Method: PREINCUBATION) was “active; positive” and the mutagenic call (Test System: E. COLI, Strain/Indicator: WP2 UVRA, Metabolic Activation: NONE, Method: SPOT) was “active; positive”. The mutagenic call (Test System: UDS HUMAN CELLS, Strain/Indicator: THY INCORP (NON-S-PHASE), Metabolic Activation: NONE, Method: AUTORADIOGRAPHY) was “active; positive” and the mutagenic call (Test System: UDS HUMAN CELLS, Strain/Indicator: THY INCORP (NON-S-PHASE), Metabolic Activation: NONE, Method: LIQUID SCINTILLATION COUNTING) was “active; positive”.

In the case of CC(=O)OCc1c2ccccc2cc2c1ccc1ccccc12, the mutagenic call [1] is reported as “active; positive” and the mutagenic call [3] is reported as “active; positive”.

In the case of Oc1ccc([C@H]2COc3cc(O)ccc3C2)cc1, the mutagenic call (End Point: IN VITRO MICRONUCLEUS, Test System: CHINESE HAMSTER V79 CELLS, Metabolic Activation: NONE) is reported as “active; positive”.
